Reference: ChEMBL document CHEMBL1154012, “Synthesis and SAR of novel tricyclic quinoxalinone inhibitors of poly(ADP-ribose)polymerase-1 (PARP-1)” (Bioorg Med Chem Lett, 2009)

Tests used:
[1] = biological target: T1, Poly [ADP-ribose] polymerase 1 (Homo sapiens, UniProt P09874)
Description: Inhibition of PARP1 in human C41 cells by DAPI staining-based FITC analysis

[2] = biological target: T1, Poly [ADP-ribose] polymerase 1; remark: listed apart in the source
Description: Inhibition of PARP1 by microplate scintillation counting

T1 sequence (P09874 whole entry): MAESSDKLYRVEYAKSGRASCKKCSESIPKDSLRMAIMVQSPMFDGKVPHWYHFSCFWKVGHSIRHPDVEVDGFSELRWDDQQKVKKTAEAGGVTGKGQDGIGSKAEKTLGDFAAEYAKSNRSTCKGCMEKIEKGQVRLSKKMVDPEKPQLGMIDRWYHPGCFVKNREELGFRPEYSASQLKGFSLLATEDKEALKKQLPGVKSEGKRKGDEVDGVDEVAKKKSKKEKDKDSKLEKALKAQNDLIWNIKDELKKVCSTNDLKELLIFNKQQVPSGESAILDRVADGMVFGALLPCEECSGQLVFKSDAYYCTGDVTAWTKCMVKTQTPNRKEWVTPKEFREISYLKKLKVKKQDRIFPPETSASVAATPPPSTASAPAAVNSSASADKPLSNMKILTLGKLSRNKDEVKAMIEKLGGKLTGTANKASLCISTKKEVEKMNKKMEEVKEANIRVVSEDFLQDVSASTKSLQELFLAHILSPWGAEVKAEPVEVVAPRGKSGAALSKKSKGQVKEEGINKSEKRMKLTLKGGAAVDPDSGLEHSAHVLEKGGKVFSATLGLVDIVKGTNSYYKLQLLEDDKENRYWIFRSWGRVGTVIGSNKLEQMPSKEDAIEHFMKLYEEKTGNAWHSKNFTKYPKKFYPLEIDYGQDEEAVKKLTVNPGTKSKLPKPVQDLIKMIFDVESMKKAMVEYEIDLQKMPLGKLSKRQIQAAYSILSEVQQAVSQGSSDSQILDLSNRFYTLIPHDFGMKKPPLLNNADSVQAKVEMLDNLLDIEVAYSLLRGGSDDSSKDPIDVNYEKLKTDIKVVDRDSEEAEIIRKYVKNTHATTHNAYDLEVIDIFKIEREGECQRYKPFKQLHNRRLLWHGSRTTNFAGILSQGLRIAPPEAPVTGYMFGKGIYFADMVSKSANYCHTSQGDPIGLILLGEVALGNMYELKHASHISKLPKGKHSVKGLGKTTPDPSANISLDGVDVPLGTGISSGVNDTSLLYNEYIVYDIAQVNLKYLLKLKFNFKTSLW

Row | EC50 [1] | Ki [2] | SMILES
1 | 646 nM | 190 nM | CN(C)Cc1ccc2c(c1)NC(=O)C1CCCN21 (stereo not drawn)
2 | 25 nM | 31 nM | O=c1[nH]c2ccc(CNC3CC3)cc2n2cccc12
3 | 164 nM | 161 nM | O=c1[nH]c2cc(CNCc3ccccc3)ccc2n2cccc12
4 | 6 nM | – | O=c1[nH]c2cc(CN3CCCC3)ccc2n2cccc12

Row | SMILES | EC50 [1] | Ki [2]
5 | O=c1[nH]c2ccc(CN3CCCCC3)cc2n2cccc12 | 31 nM | –
